Experimental data as given in PMC6588697, “Lugdunin amplifies innate immune responses in the skin in synergy with host- and microbiota-derived factors” (Nature Communications, 2019).
Several values for one entry are separate records, joined by “and”; a condition that tells them apart may be missing. Equal values may be shown once.

B1: IL-1: interleukin-1α, 10 ng/mL, control in Fig 4b (protein, UniProt P01583 113-271, looked up)
Interleukin-1 alpha: SAPFSFLSNVKYNFMRIIKYEFILNDALNQSIIRANDQYLTAAALHNLDEAVKFDMGAYKSSKDDAKITVILRISKTQLYVTAQDEDQPVLLKEMPEIPKTITGSETNLLFFWETHGTKNYFTSVAHPNLFIATKQDYWVCLAGGPPSITDFQILENQA

Assays:
Type in all cases: cell-based, human
PHKs = experiment: CXCL8 expression in PHKs (qRT-PCR, normalized to actin); details: PHKs, 5 h
Method: Fig. 1 Lugdunin sensitizes epithelial cells for innate immune defense. a Primary human keratinocytes (PHKs) were pretreated with S. epidermidis conditioned medium (CM), indicated lugdunin concentrations, or the combination of both for 20 h. Subsequently, cells were infected with S. aureus for 1.5 h followed by cell lysis and determination of colony-forming units (CFUs). Shown is one representative experiment of three independent experiments with six technical replicates ± s.e.m. n.s., not significant. b Dorsal skin of mice was pretreated with S. epidermidis CM, 1.5 µg lugdunin alone or in combination with S. epidermidis CM for 24 h. Subsequently, S. aureus CFUs were determined. Horizontal lines represent the mean of each group ± s.e.m. c PHKs were treated with 2 μM lugdunin or with S. epidermidis CM alone or in combination for 20 h and subsequently expression of indicated antimicrobial peptides (AMPs) (respective protein names in brackets) was analyzed and normalized to actin. Shown is one representative experiment of three independent experiments with two technical replicates ± s.e.m. d PHKs were treated with 2 µM lugdunin or 100 ng/mL Pam2Cys for 5 h and subsequently the concentration of indicated cytokines in the supernatant was analyzed by LEGENDplex^TM (BioLegend). Shown is one representative experiment of three independent experiments with two technical replicates ± s.e.m. e PHKs were treated with increasing concentrations of lugdunin or 100 ng/mL Pam2Cys or Pam3Cys for 5 h and subsequently expression of chemokine (C-X-C motif) ligand 8 (CXCL8) was analyzed and normalized to actin. Shown is one representative experiment of three independent experiments, each with two technical replicates ± s.e.m. f, g Indicated cells were treated with 2 µM lugdunin or 100 ng/mL Pam2Cys as a positive control for 5 h and subsequently the concentration of CXCL8 (f) and interleukin-1α (IL-1α) (g) in the supernatant was analyzed by LEGENDplex^TM (BioLegend) and enzyme-linked immunosorbent assay (ELISA) (R&D Systems). Shown is one representative experiment of three independent experiments with two technical replicates ± s.e.m. Significant differences to control treatments were analyzed by ordinary one-way analysis of variance (ANOVA) followed by Dunnett’s multiple comparisons test (*P < 0.05; **P < 0.01; ***P < 0.001; ****P < 0.0001). n.d. = not detected. Source data are provided as a Source Data file
Fig. 4 Lugdunin amplifies the commensal-induced chemokine (C-X-C motif) ligand (CXCL8) induction. a Primary human keratinocytes (PHKs) were either treated with 2 μM of human antimicrobial peptides (AMPs) (black bars) or lugdunin (blue bars), or 0.8 μM (pro)-gallidermin or nisin (black bars), or in combination with S. epidermidis conditioned medium (CM) (gray and red striped bars) for 5 h, and subsequently expression of CXCL8 was analyzed and normalized to actin. Shown is one representative experiment of three independent experiments with two technical replicates ± s.e.m. b PHKs were treated with 2 μM human AMPs, 2 μM lugdunin, 0.8 μM of the other bacteriocins (gray bars) or the correspondent peptide combinations (white bars), or 50 ng/mL Pam2Cys, 10 ng/mL IL-1α, or S. epidermidis CM as controls (black bars), for 5 h and subsequently expression of CXCL8 was analyzed and normalized to actin. Shown is one representative experiment of three independent experiments with two technical replicates ± s.e.m. Significant differences to control treatments were analyzed by ordinary one-way analysis of variance (ANOVA) followed by Dunnett’s multiple comparisons test (***P < 0.001; ****P < 0.0001). Source data are provided as a Source Data file
After 5 h or 20 h of peptide treatment, PHKs were washed once with PBS, followed by the addition of RNA lysis buffer directly into the well. Total RNA was extracted using the Nucleospin RNA Kit (Macherey-Nagel) according to the manufacturer’s protocol. […]

HNEpCs = experiment: CXCL8 expression in HNEpCs (qRT-PCR); details: 5 h, 100 ng/mL Pam2Cys or Pam3Cys, two technical replicates, sheet Supp Fig 1f
Method: (§1) Quantitative reverse transcription-polymerase chain reaction (qRT-PCR) was performed in 10 µL reaction volume with SYBR^TM Green PCR Master Mix (Thermo Fisher) according to the manufacturer’s instructions using a LightCycler 96 (Roche Life Science). The initial denaturation step was at 95 °C for 5 min, followed by 40 cycles with 10 s each for the denaturation step at 95 °C, the annealing at individual temperature, and the elongation at 72 °C. Primer sequences and respective annealing temperatures are listed in Supplementary Table 1. […]
(§2) 31 g+h+i: HNEpCs (b), HTEpCs (c) or PBMCs (d) were treated with increasing
(§3) 32 concentrations of lugdunin (grey bars) or 100 ng/mL Pam2Cys or Pam3Cys (white
(§4) 33 bars) as positive controls for 5 hours and subsequently expression of CXCL8 was
(§5) 34 analyzed and normalized to actin. Black bar: medium control. Shown is one
(§6) 35 representative experiment of three independent experiments with two technical
(§7) 36 replicates +/-s.e.m. Significant differences to control treatments were analyzed by
(§8) 37 ordinary one-way ANOVA followed by Dunnett’s multiple comparisons test (*P<0.05; […]

HTEpCs = experiment: CXCL8 expression in HTEpCs (qRT-PCR); details: 5 h, 100 ng/mL Pam2Cys or Pam3Cys, two technical replicates, sheet Supp Fig 1g
Method: as §1, §2, §3, §4, §5, §6, §7, §8

PBMCs = experiment: CXCL8 expression in PBMCs (qRT-PCR); details: 5 h, 100 ng/mL Pam2Cys or Pam3Cys, two technical replicates, sheet Supp Fig 1h
Method: Quantitative reverse transcription-polymerase chain reaction (qRT-PCR) was performed in 10 µL reaction volume with SYBR^TM Green PCR Master Mix (Thermo Fisher) according to the manufacturer’s instructions using a LightCycler 96 (Roche Life Science). The initial denaturation step was at 95 °C for 5 min, followed by 40 cycles with 10 s each for the denaturation step at 95 °C, the annealing at individual temperature, and the elongation at 72 °C. Primer sequences and respective annealing temperatures are listed in Supplementary Table 1.
Human PBMCs were isolated from the peripheral blood of healthy donors upon obtaining informed consent by Ficoll-Histopaque (Biochrom) gradient centrifugation. Cells were washed once in PBS and adjusted to a cell number of 1 × 10^6 mL^−1 in RPMI-1640 medium (Gibco/Life Technologies) containing 10% FBS (Biochrom/Merck Millipore). […]
as §2, §3, §4, §5, §6, §7, §8

Molecule	CXCL8 expression normalized to actin (PHKs; 100 ng/mL Pam2Cys or Pam3Cys, medium = 1, technical replicates, Fig 1e)	CXCL8 fold induction (HNEpCs)	CXCL8 fold induction (HTEpCs)	CXCL8 fold induction (PBMCs)	CXCL8 expression normalized to actin (PHKs; 2 µM human AMPs, 2 µM lugdunin, 0.8 µM other bacteriocins or their combinations, 50 ng/mL Pam2Cys, 10 ng/mL IL-1α, S. epidermidis CM, two technical replicates, Fig 4b)
Pam3Cys [reference compound]	1.261 and 1.177	22.316 and 30.696	3.972 and 3.732	2.838 and 2.819	
B1					153.545 and 150.36
